Assay results reported in patent publication US9896482B2, “Beta hairpin peptides having antiviral properties against Dengue virus” (CENTRO DE INGENIERÍA GENÉTICA Y BIOTECNOLOGÍA, priority 2014, dated 2018).
Like-named read-outs stand apart in the source and are kept apart here. Where a SMILES comes first, the peptide text is derived from it. Bridges are numbered along the chain shown (N, C = ends). [ ]: non-standard residue; d: D form.

Tests used:
[1] = molecular target: T1, sLRP1-CIV (Homo sapiens, UniProt Q07954); details: other studies; read-out: Affinity of multi-point interaction with clusters II and IV of LRP1; cited from earlier work
T1 construct: purchased R&D Systems, USA

[2] = molecular target: T1, sLRP1-CIV; test: Biacore (SPR) binding to immobilized sLRP1-CIV; details: double site model, maximum RU vs. concentration
Procedure: The interaction of the beta hairpin peptides with soluble fragments of the LRP1 receptor was studied by Surface Plasmon Resonance (SPR), using a Biacore X unit. In this technique, one of the interaction partners to be studied is immobilized on the surface of a chip, and the other interaction partner is dissolved in a solution that runs through the measurement cell on top of the interaction surface, under conditions of controlled flow. The association and dissociation of interacting partners is measured in resonance units (RU) and plotted, as a function of time, on charts known as ‘sensorgrams’. SPR, therefore, enables the experimenter to obtain detailed information about the interaction without having to label either interaction partner.
In this example, one channel of a CM5 chip (GE Healthcare, USA) was used to immobilize protein sLRP1-CIV on its surface at high density (see Table 6) and recombinant Human Serum Albumin (rHSA, Sigma-Aldrich, USA) was immobilized on the other channel.
Although it was decided to immobilize sLRP1-CIV at high density because these conditions make easier the detection of any potential interactions with compounds whose molecular weight is lower than that of average proteins (such as the peptides this experiment is intended to study), it must be stressed that in high-density surfaces, mass transfer limitations and the possibility of multivalent binding make difficult the accurate determination of kinetic constants. Therefore, and in order to characterize in greater detail the sLRP1-CIV binding surface, different RAP dilutions (0.6-20 μM) were loaded, and RU were registered under conditions of interaction equilibria (250 sec, see FIG. 13B). […] The data also indicate that immobilized sLRP1-CIV faithfully reproduces the previously reported characteristics of the LRP1-RAP interaction.
The binding of beta hairpin peptides to sLRP1-CIV was studied by loading 20 μM dilutions in running buffer of the different peptide variants onto the sLRP1-CIV chip characterized above. The high strength of the resulting signals is consistent with the binding of aggregated, rather than monomeric forms of the peptides. Therefore, the observed variations between different peptides may reflect either differences in the affinity of unitary peptide interactions or differences in aggregation numbers and/or geometries that lead to variations in the number of peptide units able to simultaneously engage immobilized sLRP1-CIV molecules in a multivalent manner. […] The difference between peptides HDIII3CL2 and HDIII3CL is that the former has an additional C-terminal lysine and has, therefore, a stronger cationic character, which may facilitate additional electrostatic interactions with the negatively charged LRP1 receptor.

[3] = tested on: DENV serotype 2 (NIBSC code S16803); test: Plaque reduction assay in Vero cells, DENV2; assay type: cell-based, Dengue virus
Procedure: (§1) The cells were grown in 24 well plates until the monolayer reached approximately 90% confluence, after which they were washed twice with MEM medium without Fetal Bovine Serum (FBS). Then, peptide dilutions were added and the cell-peptide mixtures were incubated typically for 1 hour at 37° C., followed by the addition of a DENV serotype 2 preparation (NIBSC code S16803) at a multiplicity of infection (m.o.i.) of 0.001. The cells were then incubated for 1 hour at 37° C., and once the period of incubation with the viral inoculum concluded, were washed again to remove unbound virions and incubated for 5 days at 37° C. in high density medium (MEM supplemented with non-essential amino acids, 1% FBS, 1% carboxymethylcellulose) in order to let viral plaques form. Afterwards, the cells were stained with 0.1% Naphtol Blue Black in 0.15 M sodium acetate. Two replicates per experimental point were used in each assay, and three independent determinations were performed for each sample.
Next, it was decided to compare the antiviral activity of peptides PHB4 and HDIII3CL against all four DENV serotypes, with the objective of comparing their respective IC50 values. This comparison was performed with plaque reduction assays on Vero cells, adding the viral inoculum for each serotype (DENV1, NIBSC code West Pac 74, DENV2, NIBSC, code S16803; DENV3, NIBSC, code CH53489; DENV 4, NIBSC code TVP360) at a m.o.i. of 0.001.

[4] = tested on: DENV 4 (NIBSC code TVP360); test: Plaque reduction assay in Vero cells, DENV4; assay type: cell-based, Dengue virus; details: m.o.i. 0.001, read-out: Antiviral activity IC50 vs DENV4
Procedure: as §1
(§2) Next, it was decided to compare the antiviral activity of peptides PHB4 and HDIII3CL against all four DENV serotypes, with the objective of comparing their respective IC50 values. […]

[5] = tested on: DENV3 (NIBSC code CH53489); test: Plaque reduction assay in Vero cells, DENV3; assay type: cell-based, Dengue virus; details: m.o.i. 0.001, read-out: Antiviral activity IC50 vs DENV3
Procedure: as §1, §2

[6] = Toxicity in Vero cells (MTT assay and manual cell counting); assay type: cell-based; details: ‡ non toxic at 1000 μM, read-out: Ctox50
Procedure: (§3) The toxicity of the beta hairpin peptides was assessed with the MTT (3-(4,5-dimethylthiazol-2-yl)-2,5-diphenyltetrazolium bromide, Invitrogen, USA) assay (Mosmann, T. (1983). J. Immunol. Methods 65, 55-63.), and by manual cell counting using a Neubauer chamber. Ninety-six well plates (Costar, USA) were seeded with 200 μL/well of a suspension containing Vero cells at 1×10^5 cells/mL and incubated until the monolayers reached approximately 90% confluence, typically for 18-24 h. After washing the cells twice with DMEM (Dulbecco's Modified Eagle Medium) medium, 50 μL/well were added of the peptide or additive dilutions to be evaluated (Triton ^X-100™ dissolved in PBS was used as positive toxicity control) and the plates were incubated at 37° C. under a 5% CO2 atmosphere for 2 or 24 h. Two different procedures were then employed to measure toxicity: • a) A 2 mg/mL solution of MTT in PBS was added (50 μL/well) and the plates were incubated for further 4 h at 37° C., 5% CO2. The medium was then removed, and 100 μL/well of DMSO were then added to solubilize formazan precipitates. Finally, the optical density (OD) of the supernatants at a wavelength of 540 nm was measured using a plate reader (Sensident Scan™, Merck, Germany). • b) The plates were washed with 200 μL/well of DMEM medium and then a trypsin solution (Sigma, USA) was added at 50 μL/well. After inactivating the trypsin by adding 150 μL/well of DMEM supplemented with 10% FBS, the cells were counted using the Trypan Blue (Gibco, USA) vital stain. The data were processed using the statistical software package Prism v5.3 (GraphPad, USA), using non-linear regression to fit them to a log10 (concentration) vs response curve.

[7] = tested on: DENV1 (NIBSC code West Pac 74); test: Plaque reduction assay in Vero cells, DENV1; assay type: cell-based, Dengue virus; details: m.o.i. 0.001, read-out: Antiviral activity IC50 vs DENV1
Procedure: as §1, §2

[8] = tested on: Vero cells; test: Toxicity in Vero cells (MTT assay and manual cell counting); assay type: cell-based; details: ‡ non toxic at 1000 μM
Procedure: as §3

[9] = DENV2, plaque reduction, NA = no detectable activity at concentrations lower than or equal to 100 μM, read-out: IC50, antiviral activity in Vero cells (50% inhibitory activity)

Row | Compound | Kd [1] [µM] | Kd ([2]; read-out: Kd of high-affinity interaction) [µM] | Kd ([2]; read-out: Kd of low-affinity interaction) [µM] | IC50 [3, 9] [µM] | IC50 ([3]; Vero cells, m.o.i. 0.001, read-out: Antiviral activity IC50 vs DENV2) [µM] | IC50 [4] [µM] | IC50 [5] [µM] | CC50 [6] [µM] | IC50 [7] [µM] | Ctox50 [8]
1 | RAP: Receptor-Associated Protein, a known LRP1 ligand | 0.006 to 0.018 | 0.0042 | 1.1 | – | – | – | – | – | – | –
2 | CC[C@H](C)[C@@H]1NC(=O)CNC(=O)[C@H]([C@@H](C)CC)NC(=O)[C@H](C(C)C)NC(=O)[C@H]([C@@H](C)CC)NC(=O)[C@H](CC(N)=O)NC(=O)[C@H](CO)NC(=O)[C@@H](N)CSSC[C@@H](C(=O)N[C@@H](CCCCN)C(=O)N[C@@H](CCCCN)C(N)=O)NC(=O)[C@H](Cc2c[nH]c3ccccc23)NC(=O)[C@H](CC(N)=O)NC(=O)[C@H]([C@@H](C)CC)NC(=O)[C@H](CCCCN)NC(=O)[C@H](CC(C)C)NC(=O)[C@H](C)NC(=O)[C@H](CCCCN)NC(=O)[C@H](CC(=O)O)NC(=O)CNC1=O [HDIII3CL, reference compound] (H-CSNIVIGIGDKALKINWCKK-NH2; disulfide 1-18) | – | – | – | 20 | 20 | 50 | 20 | 1000 | 15 | –
3 | CC(C)[C@@H]1NC(=O)[C@H](CCCCN)NC(=O)[C@H](CCCCN)NC(=O)[C@H](CC(=O)O)NC(=O)[C@H]2CCCN2C(=O)[C@H](CCC(=O)O)NC(=O)[C@H]([C@@H](C)O)NC(=O)[C@H](Cc2c[nH]c3ccccc23)NC(=O)[C@H](CC(N)=O)NC(=O)[C@H](C(C)C)NC(=O)[C@@H](N)CSSC[C@@H](C(=O)N[C@@H](CCCCN)C(=O)N[C@@H](CCCCN)C(=O)N[C@@H](CCCCN)C(N)=O)NC(=O)[C@H](Cc2c[nH]c3ccccc23)NC(=O)[C@H](CC(N)=O)NC1=O [PHB1] (H-CVNWTE[dP]DKKVNWCKKK-NH2; disulfide 1-14) | – | – | – | 75 | – | – | – | – | – | >>1000^‡ μM
